Reference: patent publication US10760110B2, “Antibiotic testing and screening system” (priority 2017, dated 2020)
Values after ≈ are worked out from the molar mass of the structure shown. Like-named read-outs stand apart in the source and are kept apart here.

How the values were obtained:
Settings in all cases: Klebsiella pneumoniae
[1] = test system: K. pneumoniae NVT1001 and its ΔompK35/36 and/or ΔramR mutants; assay: Etest MIC, OmpK35/36 loss and AcrAB-TolC overexpression (ΔramR) strains (Table 6); type: cell-based, Klebsiella pneumoniae
Procedure, shortened: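 Ceftazidime and cefotaxime were tested by CLSI broth microdilution on the blaOXA-48 pACYC177 transformant of NVT1001, using CLSI 2017 breakpoints. Parent, porin-deleted (ΔompK35/36) and ΔramR strains were tested by Etest, with values between two-fold dilutions rounded up.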

[2] = test system: K. pneumoniae NVT1001 ΔramRΔompK35/36 mutant and its revertants; assay: Etest MIC, ΔramRΔompK35/36 mutant and its revertants (Table 7); type: cell-based
[3] = test system: K. pneumoniae NVT1001 strains with carbapenemase plasmids; assay: Etest MIC of β-lactams, OmpK35/36 loss, ΔramR and/or carbapenemase (Table 9); type: cell-based, Klebsiella pneumoniae
Protocol: DNA fragments of the resistance genes along with their flanking regions were amplified from clinical plasmids via PCR with specific primer pairs. The resulting PCR fragments were digested and then cloned into the plasmid pACYC177 or pACYC184. The resulting plasmids were then transformed into K. pneumoniae strain NVT1001 via electroporation. The recombinant bacteria were plated onto LB agar plates containing kanamycin (50 mg/L) or chloramphenicol (50 mg/L), and the presence of the cloned gene was confirmed via PCR and DNA sequencing.
The MICs of antibiotics were determined using the Etest (Biodisk AB, Sweden) according to the manufacturer's instructions. The MICs from the Etest, which fall between standard two-fold dilutions, were rounded up to the next highest two-fold value. The MICs of ceftazidime and cefotaxime against K. pneumoniae NVT1001 harbouring the pACYC177 plasmid with blaOXA-48 were further determined using a broth microdilution test according to the recommendations of the CLSI,^25 and the results were interpreted according to the breakpoints established by the CLSI in 2017.^25 Meanwhile, due to the lack of CLSI breakpoints in 2016 and 2017, the results for cephalothin were interpreted according to the breakpoints established by the CLSI in 2015,^26 and the results for moxifloxacin were interpreted according to the breakpoints established by the EUCAST in 2017.^27

Structure (SMILES): C[C@@H](O)[C@H]1C(=O)N2C(C(=O)O)=C(SCCN=CN)C[C@H]12 [Imipenem]
- MIC ([1]; WT, NVT1001, read-out: MIC): 0.5 µg/mL (≈ 1.67 µM)
- MIC ([1]; Δ35, ΔompK35 mutant): 0.5 µg/mL (≈ 1.67 µM)
- MIC ([1]; Δ35/36, ΔompK35/36 mutant): 0.5 µg/mL (≈ 1.67 µM)
- MIC ([1]; Δ36, ΔompK36 mutant): 0.5 µg/mL (≈ 1.67 µM)
- MIC ([1]; ΔramR mutant): 0.25 µg/mL (≈ 0.835 µM)
- MIC ([1]; ΔramRΔ35, ΔramRΔompK35 mutant): 0.25 µg/mL (≈ 0.835 µM)
- MIC ([1]; ΔramRΔ35/36, ΔramRΔompK35/36 mutant): 0.5 µg/mL (≈ 1.67 µM)
- MIC ([1]; ΔramRΔ36, ΔramRΔompK36 mutant): 0.5 µg/mL (≈ 1.67 µM)
- MIC ([2]; ΔramRΔompK35/36::ompK35/36 revertant): 0.25 µg/mL
- MIC ([2]; ΔramRΔompK35/36::ompK35 revertant): 0.25 µg/mL
- MIC ([2]; ΔramRΔompK35/36::ompK36 revertant): 0.25 µg/mL
- MIC ([2]; ΔramRΔompK35/36::ramR revertant): 0.5 µg/mL
- MIC ([2]; ΔramRΔompK35/36::ramR::ompK35/36 revertant): 0.5 µg/mL
- MIC ([2]; ΔramRΔompK35/36::ramR::ompK35 revertant): 0.25 µg/mL
- MIC ([2]; ΔramRΔompK35/36::ramR::ompK36 revertant): 0.25 µg/mL
- MIC ([2]; ΔramRΔompK35/36 mutant): 0.5 µg/mL
- MIC ([3]; IMP-8 on pACYC177, WT (NVT1001), read-out: MIC): 4 µg/mL
- MIC ([3]; IMP-8 on pACYC177, Δ35 (ΔompK35 mutant)): 4 µg/mL
- MIC ([3]; IMP-8 on pACYC177, Δ35/36 (ΔompK35/36 mutant)): > 32 µg/mL
- MIC ([3]; IMP-8 on pACYC177, Δ36 (ΔompK36 mutant)): 8 µg/mL
- MIC ([3]; IMP-8 on pACYC177, ΔramR mutant): 4 µg/mL
- MIC ([3]; IMP-8 on pACYC177, ΔramRΔ35 (ΔramRΔompK35 mutant)): 4 µg/mL
- MIC ([3]; IMP-8 on pACYC177, ΔramRΔ35/36 (ΔramRΔompK35/36 mutant)): > 32 µg/mL
- MIC ([3]; IMP-8 on pACYC177, ΔramRΔ36 (ΔramRΔompK36 mutant)): > 32 µg/mL
- MIC ([3]; KPC-2 on pACYC177, WT (NVT1001), read-out: MIC): > 32 µg/mL
- MIC ([3]; KPC-2 on pACYC177, Δ35 (ΔompK35 mutant)): > 32 µg/mL
- MIC ([3]; KPC-2 on pACYC177, Δ35/36 (ΔompK35/36 mutant)): > 32 µg/mL
- MIC ([3]; KPC-2 on pACYC177, Δ36 (ΔompK36 mutant)): > 32 µg/mL
- MIC ([3]; KPC-2 on pACYC177, ΔramR mutant): > 32 µg/mL
- MIC ([3]; KPC-2 on pACYC177, ΔramRΔ35 (ΔramRΔompK35 mutant)): > 32 µg/mL
- MIC ([3]; KPC-2 on pACYC177, ΔramRΔ35/36 (ΔramRΔompK35/36 mutant)): > 32 µg/mL
- MIC ([3]; KPC-2 on pACYC177, ΔramRΔ36 (ΔramRΔompK36 mutant)): > 32 µg/mL
- MIC ([3]; KPC-3 on pACYC177, WT (NVT1001), read-out: MIC): 32 µg/mL
- MIC ([3]; KPC-3 on pACYC177, Δ35 (ΔompK35 mutant)): > 32 µg/mL
- MIC ([3]; KPC-3 on pACYC177, Δ35/36 (ΔompK35/36 mutant)): > 32 µg/mL
- MIC ([3]; KPC-3 on pACYC177, Δ36 (ΔompK36 mutant)): > 32 µg/mL
- MIC ([3]; KPC-3 on pACYC177, ΔramR mutant): 32 µg/mL
- MIC ([3]; KPC-3 on pACYC177, ΔramRΔ35 (ΔramRΔompK35 mutant)): 32 µg/mL
- MIC ([3]; KPC-3 on pACYC177, ΔramRΔ35/36 (ΔramRΔompK35/36 mutant)): > 32 µg/mL
- MIC ([3]; KPC-3 on pACYC177, ΔramRΔ36 (ΔramRΔompK36 mutant)): > 32 µg/mL
- MIC ([3]; NDM-1 on pACYC177, WT (NVT1001), read-out: MIC): > 32 µg/mL
- MIC ([3]; NDM-1 on pACYC177, Δ35 (ΔompK35 mutant)): > 32 µg/mL
- MIC ([3]; NDM-1 on pACYC177, Δ35/36 (ΔompK35/36 mutant)): > 32 µg/mL
- MIC ([3]; NDM-1 on pACYC177, Δ36 (ΔompK36 mutant)): > 32 µg/mL
- MIC ([3]; NDM-1 on pACYC177, ΔramR mutant): > 32 µg/mL
- MIC ([3]; NDM-1 on pACYC177, ΔramRΔ35 (ΔramRΔompK35 mutant)): > 32 µg/mL
- MIC ([3]; NDM-1 on pACYC177, ΔramRΔ35/36 (ΔramRΔompK35/36 mutant)): > 32 µg/mL
- MIC ([3]; NDM-1 on pACYC177, ΔramRΔ36 (ΔramRΔompK36 mutant)): > 32 µg/mL
- MIC ([3]; OXA-48 on pACYC177, WT (NVT1001), read-out: MIC): 4 µg/mL
- MIC ([3]; OXA-48 on pACYC177, Δ35 (ΔompK35 mutant)): 4 µg/mL
- MIC ([3]; OXA-48 on pACYC177, Δ35/36 (ΔompK35/36 mutant)): > 32 µg/mL
- MIC ([3]; OXA-48 on pACYC177, Δ36 (ΔompK36 mutant)): 8 µg/mL
- MIC ([3]; OXA-48 on pACYC177, ΔramR mutant): 4 µg/mL
- MIC ([3]; OXA-48 on pACYC177, ΔramRΔ35 (ΔramRΔompK35 mutant)): 4 µg/mL
- MIC ([3]; OXA-48 on pACYC177, ΔramRΔ35/36 (ΔramRΔompK35/36 mutant)): > 32 µg/mL
- MIC ([3]; OXA-48 on pACYC177, ΔramRΔ36 (ΔramRΔompK36 mutant)): > 32 µg/mL
- MIC ([3]; VIM-1 on pACYC177, WT (NVT1001), read-out: MIC): 16 µg/mL
- MIC ([3]; VIM-1 on pACYC177, Δ35 (ΔompK35 mutant)): 32 µg/mL
- MIC ([3]; VIM-1 on pACYC177, Δ35/36 (ΔompK35/36 mutant)): > 32 µg/mL
- MIC ([3]; VIM-1 on pACYC177, Δ36 (ΔompK36 mutant)): > 32 µg/mL
- MIC ([3]; VIM-1 on pACYC177, ΔramR mutant): 16 µg/mL
- MIC ([3]; VIM-1 on pACYC177, ΔramRΔ35 (ΔramRΔompK35 mutant)): 16 µg/mL
- MIC ([3]; VIM-1 on pACYC177, ΔramRΔ35/36 (ΔramRΔompK35/36 mutant)): > 32 µg/mL
- MIC ([3]; VIM-1 on pACYC177, ΔramRΔ36 (ΔramRΔompK36 mutant)): > 32 µg/mL
- MIC ([3]; no supplemental plasmid, WT (NVT1001), read-out: MIC): 0.5 µg/mL
- MIC ([3]; no supplemental plasmid, Δ35 (ΔompK35 mutant)): 0.5 µg/mL
- MIC ([3]; no supplemental plasmid, Δ35/36 (ΔompK35/36 mutant)): 0.5 µg/mL
- MIC ([3]; no supplemental plasmid, Δ36 (ΔompK36 mutant)): 0.5 µg/mL
- MIC ([3]; no supplemental plasmid, ΔramR mutant): 0.25 µg/mL
- MIC ([3]; no supplemental plasmid, ΔramRΔ35 (ΔramRΔompK35 mutant)): 0.25 µg/mL
- MIC ([3]; no supplemental plasmid, ΔramRΔ35/36 (ΔramRΔompK35/36 mutant)): 0.5 µg/mL
- MIC ([3]; no supplemental plasmid, ΔramRΔ36 (ΔramRΔompK36 mutant)): 0.5 µg/mL
